Test results published in patent US11352322B2, “Cyclopropyl-amide compounds as dual LSD1/HDAC inhibitors” (Jubilant Epicore LLC, priority 2016, dated 2022).
Where a name gives a salt, the structure may show the parent alone. Read-outs that look alike come from different tables or passages of the source.

How the values were obtained:
[1] = Metabolic stability in liver microsomes, HLM; details: 1 μM, NADPH
Protocol: (§1) The microsomal suspension was prepared by adding liver microsomes to 100 mM potassium phosphate buffer (pH7.4) to give a final protein concentration of 0.5 mg/mL. The stock solution of NCE (10 mM in DMSO) was added to the microsomes to provide a final concentration of 1 μM. […] Samples were vortexed and centrifuged at 5,000 rpm for 10 min to remove proteins. Supernatant were analyzed on LC-MS/MS.

[2] = Metabolic stability in liver microsomes, MLM; details: 1 μM, NADPH
Protocol: as §1

[3] = system: MM1S; assay: Anticancer activity: Alamar Blue assay, MM1S; format: cell-based; details: Homo sapiens, MM1.S, read-out: MM1S EC50

| SMILES | Metabolic stability HLM % remaining in 30 min [1] | Metabolic stability MLM % remaining in 30 min [2] | EC50 [3] | EC50 ([3]; MM1S cells) |
| --- | --- | --- | --- | --- |
| O=C(/C=C/c1ccc(CNC2CC2c2ccc(C3CC3)cc2)cc1)NO (stereo not drawn) [Example 1, (E)-3(4(((2(4cyclopropylphenyl)cyclopropl)amino)methyl)phenyl)-N-hydroxyacrylamide] | 21% | 5% | – | – |
| O=C(/C=C/c1ccc(CNC2CC2c2ccc(F)cc2)cc1)NO (stereo not drawn) [Example 2, (E)-3-(4-{[2-(4-Fluoro-phenyl)-cyclopropylamino]-methyl}-phenyl)-N-hydroxy-acrylamide TFA Salt] | 41% | 19% | – | – |
| O=C(/C=C/c1ccc(CNC2CC2c2ccc(OCc3ccc(F)cc3)cc2)cc1)NO (stereo not drawn) [Example 3, (E)-3-(4-(((2-(4-((4-fluorobenzyl)oxy)phenyl)cyclopropyl)amino)methyl)phenyl)-N-hydroxyacrylamide TFA Salt] | 65% | < 5% | 104 nM | – |
| Cc1noc(C)c1-c1ccc(C2CC2NCc2ccc(/C=C/C(=O)NO)cc2)cc1 (stereo not drawn) [Example 6, (E)-3-(4-(((2-(4-(3,5-dimethylisoxazol-4-yl)phenyl)cyclopropyl)amino)methyl)phenyl)-N-hydroxyacrylamide TFA Salt] | 44% | < 5% | 34 nM | – |
| O=C(NO)c1cnc(N2CCC(NC3CC3c3ccccc3)CC2)nc1 (stereo not drawn) [Example 9, 2-[4-(2-Phenyl-cyclopropylamino)-piperidin-1-yl]-pyrimidine-5-carboxylic Acid Hydroxyamide TFA Salt] | 65% | 50% | 4 nM | – |
| O=C(NO)c1cnc(N2CCC(NC3CC3c3ccc(F)cc3)CC2)nc1 (stereo not drawn) [Example 10, 2-{4-[2-(4-Fluoro-phenyl)-cyclopropylamino]-piperidin-1-yl}-pyrimidine-5-carboxylic acid hydroxyamide TFA salt] | 81% | 55% | 9 nM | – |
| O=C(NO)c1cnc(N2CCC(CNC3CC3c3ccc(OCc4ccc(F)cc4)cc3)CC2)nc1 (stereo not drawn) [Example 11, 2-(4-(((2-(4-((4-fluorobenzyl)oxy)phenyl)cyclopropyl)amino)methyl)piperidin-1-yl)-N-hydroxypyrimidine-5-carboxamide TFA Salt] | 44% | 14% | 18 nM | – |
| O=C(NO)c1cnc(N2CCC(NC3CC3c3ccc(-c4ccc(Cl)cc4)cc3)CC2)nc1 (stereo not drawn) [Example 13, 2-(4-((2-(4′-chloro-[1,1′-biphenyl]-4-yl)cyclopropyl)amino)piperidin-1-yl)-N-hydroxypyrimidine-5-carboxamide TFA Salt] | 57% | 23% | 24 nM | – |
| O=C(NO)c1cnc(N2CCC(CNC3CC3c3ccc(-c4ccc(Cl)cc4)cc3)CC2)nc1 (stereo not drawn) [Example 14, 2-(4-(((2-(4′-chloro-[1,1′-biphenyl]-4-yl)cyclopropyl)amino)methyl)piperidin-1-yl)-N-hydroxypyrimidine-5-carboxamide TFA Salt] | 88% | 82% | 8 nM | – |
| Cc1noc(C)c1-c1ccc(C2CC2NCC2CCN(c3ncc(C(=O)NO)cn3)CC2)cc1 (stereo not drawn) [Example 16, 2-(4-(((2-(4-(3,5-dimethylisoxazol-4-yl)phenyl)cyclopropyl)amino)methyl)piperidin-1-yl)-N-hydroxypyrimidine-5-carboxamide TFA Salt] | 47% | 25% | 17 nM | – |
| O=C(NO)c1cnc(N2CCC(CNC3CC3c3ccc(-c4cncnc4)cc3)CC2)nc1 (stereo not drawn) [Example 17, N-hydroxy-2-(4-(((2-(4-(pyrimidin-5-yl)phenyl)cyclopropyl)amino)methyl)piperidin-1-yl)pyrimidine-5-carboxamide TFA Salt] | 69% | 57% | 17 nM | – |
| COc1ccc(C2CC2NCC2CCN(c3ncc(C(=O)NO)cn3)CC2)cc1 (stereo not drawn) [Example 18, N-hydroxy-2-(4-(((2-(4-methoxyphenyl)cyclopropyl)amino)methyl)piperidin-1-yl)pyrimidine-5-carboxamide TFA Salt] | 41% | 28% | 3 nM | – |
| O=C(NO)c1cccc(CNC2CC2c2ccc(Br)cc2)c1 (stereo not drawn) [Example 26, 3-(((2-(4-bromophenyl)cyclopropyl)amino)methyl)-N-hydroxybenzamide TFA Salt] | 30% | 13% | – | – |
| O=C(CCCCCNC1CC1c1ccccc1)NO (stereo not drawn) [Example 29, N-hydroxy-6-((2-phenylcyclopropyl)amino)hexanamide TFA Salt] | > 95% | 90% | – | – |
| O=C(CCCCCCNC(=O)c1ccc(CNC2CC2c2ccccc2)cc1)NO (stereo not drawn) [Example 31, N-(6-Hydroxycarbamoyl-hexyl)-4-[(2-phenyl-cyclopropylamino)-methyl]-benzamide TFA Salt] | 39% | 18% | – | – |
| O=C(NO)c1ccc(CN2CCC(CNC3CC3c3ccccc3)CC2)cc1 (stereo not drawn) [Example 36, N-Hydroxy-4-{4-[(2-phenyl-cyclopropylamino)-methyl]-piperidin-1-ylmethyl}-benzamide TFA Salt] | 63% | 53% | – | – |
| Cc1noc(C)c1-c1ccc(C2CC2NCC2CN(CCCc3cccc(C(=O)NO)c3)C2)cc1 (stereo not drawn) [Example 65, 3-(3-(3-(((2-(4-(3,5-dimethylisoxazol-4-yl)phenyl)cyclopropyl)amino)methyl)azetidin-1-yl)propyl)-N-hydroxybenzamide TFA Salt] | – | – | – | 26 nM |
| O=C(NO)c1ccc(CCCN2CCc3cc(CNC4CC4c4ccc(F)cc4)ccc3C2)cc1 (stereo not drawn) [Example 78, 4-(3-(6-(((2-(4-fluorophenyl)cyclopropyl)amino)methyl)-3,4-dihydroisoquinolin-2(1H)-yl)propyl)-N-hydroxybenzamide TFA Salt] | 72% | 32% | – | – |
| Nc1ccccc1NC(=O)/C=C/c1ccc(CNC2CC2c2ccc(F)cc2)cc1 (stereo not drawn) [Example 120] | 27% | 16% | – | – |
| Nc1ccccc1NC(=O)c1ccc(CCCN2CCC(CNC3CC3c3ccc(C(=O)N4CCCCC4)cc3)CC2)cc1 (stereo not drawn) [Example 125, N-(2-aminophenyl)-4-(3-(4-(((2-(4-(piperidine-1-carbonyl)phenyl)cyclopropyl)amino)methyl)piperidin-1-yl)propyl)benzamide TFA Salt] | 34% | 49% | – | – |
| Nc1ccccc1NC(=O)c1ccc(CCCN2CC(CNC3CC3c3ccc(F)cc3)C2)cc1 (stereo not drawn) [Example 126, N-(2-aminophenyl)-4-(3-(3-(((2-(4-fluorophenyl)cyclopropyl)amino)methyl)azetidin-1-yl)propyl)benzamide TFA Salt] | 79% | 76% | – | – |
